From patent publication US9598424B2 (Takeda Pharmaceutical Company Limited, priority 2014, dated 2017) come the findings set out here.

Some results are limits rather than exact numbers.

One assay addresses T1, TBK1 (Homo sapiens, UniProt Q9UHD2).
T1 construct: host or cells: RA1-ISRE beta-lactamase reporter cells
T1 sequence (Q9UHD2 1-729): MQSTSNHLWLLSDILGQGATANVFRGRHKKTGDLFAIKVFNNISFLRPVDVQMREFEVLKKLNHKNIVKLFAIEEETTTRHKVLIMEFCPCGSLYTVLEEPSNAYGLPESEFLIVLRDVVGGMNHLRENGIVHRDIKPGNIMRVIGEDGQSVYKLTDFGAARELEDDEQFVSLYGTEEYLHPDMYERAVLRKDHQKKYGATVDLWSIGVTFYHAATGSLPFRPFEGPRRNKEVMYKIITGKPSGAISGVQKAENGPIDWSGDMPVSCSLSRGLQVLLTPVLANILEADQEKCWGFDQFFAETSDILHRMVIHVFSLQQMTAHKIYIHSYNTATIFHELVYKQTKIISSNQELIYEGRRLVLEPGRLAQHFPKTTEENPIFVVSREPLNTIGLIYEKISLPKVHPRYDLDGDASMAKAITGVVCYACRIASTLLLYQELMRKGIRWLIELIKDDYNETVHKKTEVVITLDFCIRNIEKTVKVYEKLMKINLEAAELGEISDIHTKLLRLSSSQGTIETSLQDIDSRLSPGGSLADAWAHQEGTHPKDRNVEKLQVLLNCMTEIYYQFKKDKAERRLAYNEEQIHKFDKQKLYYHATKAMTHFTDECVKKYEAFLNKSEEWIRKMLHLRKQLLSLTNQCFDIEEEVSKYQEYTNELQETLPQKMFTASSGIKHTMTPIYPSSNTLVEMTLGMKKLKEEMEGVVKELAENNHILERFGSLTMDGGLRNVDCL
The experiment in a line: Inhibition of TBK1 in Cells (TLR3 driven ISRE β-lactamase reporter assay). Type of assay: cell-based. The note with it: poly IC-LMW stimulation 16 hrs, -log(EC50), EC50 molar; for EC50: read-out: Inhibition of TBK1 in cells pEC50 (EC) (converted). An outline of the steps: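 RA1-ISRE β-lactamase reporter cells (50,000/well) treated with 11-point 2.5-fold compound dilutions and stimulated with 0.15 mg/ml poly IC-LMW for 16 hrs. Reporter read by CCF4-AM FRET; EC50 from non-linear fit of percent inhibition, reported as pEC50 (molar).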
On the technique in general: A reporter such as luciferase makes a cellular process visible.

In another assay the target is T2, Full length human TBK1 (Homo sapiens, UniProt Q9UHD2).
T2 construct: Full length human TBK1 with an N-terminal His-tag; His-tag (N); made in house; host or cells: Sf9 insect cells (baculovirus, pFastBac1)
T2 sequence (Q9UHD2 1-729): T1 sequence (Q9UHD2 1-729)
The experiment in a line: Inhibition of TBK1 Enzyme (Caliper microfluidic assay). The assay is classed as biochemical. The note with it: 25 μM ATP, 60 min at RT, -log(IC50), IC50 molar; for IC50: read-out: TBK1 Inhibition (pIC50) (converted). The method, boiled down: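 Enzyme: His-tagged full-length TBK1 expressed in Sf9. Reaction 60 min at RT in 20 mM Hepes pH 7.4, 10 mM MgCl2, 1 mM EDTA, 0.01% Brij-L23, 1 mM DTT, with 5FAM-peptide (added at 1 μM) and TBK1/ATP mix (added at 3 nM/25 μM), then EDTA-quenched. Conversion measured by microfluidic separation; 11-point 2.5-fold series fit to pIC50.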

Consider `C[C@H](NC(=O)c1nc(-c2ccc3nc(NC(=O)C4CC4)cn3c2)c[nH]1)C(F)(F)F` [Example 10, 4-{2-cyclopropaneamidoimidazo[1,2-a]pyridin-6-yl}-N-[(2S)-1,1,1-trifluoropropan-2-yl]-1H-imidazole-2-carboxamide], for which the EC50 at TBK1 is greater than 50100 nM. Also, the IC50 on Full length human TBK1 was 316 nM.
The corresponding values for `O=C(Nc1cn2cc(-c3csc(C(=O)N4CCC[C@@H]4C(F)(F)F)n3)ccc2n1)C1CC1` [Example 93, (R)-N-(6-(2-(2-(trifluoromethyl)pyrrolidine-1-carbonyl)thiazol-4-yl)imidazo[1,2-a]pyridin-2-yl)cyclopropanecarboxamide] are 110 nM and 7.94 nM.
On to `O=C(Nc1cn2cc(-c3csc(C(=O)N4CC(O)C4)n3)ccc2n1)C1CC1` [Example 113, N-(6-(2-(3-hydroxyazetidine-1-carbonyl)thiazol-4-yl)imidazo[1,2-a]pyridin-2-yl)cyclopropanecarboxamide], for which the EC50 on TBK1 was 2690 nM. For the same compound, the IC50 at Full length human TBK1 was 126 nM.
The like results for `C[C@@H](NC(=O)c1cc(-c2ccc3nc(NC(=O)C4CC4)cn3c2)cs1)C(F)(F)F` [Example 81, (R)-4-(2-(cyclopropanecarboxamido)imidazo[1,2-a]pyridin-6-yl)-N-(1,1,1-trifluoropropan-2-yl)thiophene-2-carboxamide] were, in that order, 44.7 nM and 2.51 nM.
As to `O=C(NC1CCOC1=O)c1nc(-c2ccc3nc(NC(=O)C4CC4)cn3c2)cs1` (stereo not drawn) [Example 94, 4-(2-(cyclopropanecarboxamido)imidazo[1,2-a]pyridin-6-yl)-N-(2-oxotetrahydrofuran-3-yl)thiazole-2-carboxamide], on TBK1, the EC50 was 5500 nM. Further, the IC50 at Full length human TBK1 was 200 nM.
As for `O=C(NC1CCOC1)c1cc(-c2ccc3nc(NC(=O)C4CC4)cn3c2)cs1` (stereo not drawn) [Example 70, 4-(2-(cyclopropanecarboxamido)imidazo[1,2-a]pyridin-6-yl)-N-(tetrahydrofuran-3-yl)thiophene-2-carboxamide], the EC50 on TBK1 was 891 nM. For the same compound, the IC50 on Full length human TBK1 was 31.6 nM.
The like results for `O=C(N[C@H]1CCC[C@H]1O)c1nc(-c2ccc3nc(NC(=O)C4CC4)cn3c2)cs1` [Example 89, 4-(2-(cyclopropanecarboxamido)imidazo[1,2-a]pyridin-6-yl)-N-((1S, 2R)-2-hydroxycyclopentyl)thiazole-2-carboxamide] were, in that order, 1020 nM and 31.6 nM.
The like results for `O=C(Nc1cn2cc(-n3ccc(C(=O)N(CCO)CC(F)(F)F)n3)ncc2n1)C1CC1` [Example 127, 1-(2-(cyclopropanecarboxamido)imidazo[1,2-a]pyrazin-6-yl)-N-(2-hydroxyethyl)-N-(2,2,2-trifluoroethyl)-1H-pyrazole-3-carboxamide] were, in that order, 209 nM and 5.01 nM.
On to `O=C(NCC(F)(F)F)c1nc(-c2cn3cc(NC(=O)C4CC4)nc3cn2)cs1` [Example 6, 4-(2-(cyclopropanecarboxamido)imidazo[1,2-a]pyrazin-6-yl)-N-(2,2,2-trifluoroethyl)thiazole-2-carboxamide], for which the EC50 on TBK1 is 355 nM. The IC50 at Full length human TBK1 is 7.94 nM.
Regarding `O=C(NCC(F)F)c1nc(-c2cn3cc(NC(=O)C4CC4)nc3cn2)cs1` [Example 5, 4-(2-(cyclopropanecarboxamido)imidazo[1,2-a]pyrazin-6-yl)-N-(2,2-difluoroethyl)thiazole-2-carboxamide], the EC50 at TBK1 was 794 nM. Moreover, the IC50 on Full length human TBK1 was 10 nM.
For the compound `O=C(Nc1cn2cc(-c3cc(C(=O)N4CCCC4)[nH]n3)ccc2n1)C1CC1` [Example 116], the EC50 at TBK1 is 3020 nM. Further, at Full length human TBK1, the IC50 is 200 nM.
The corresponding values for `O=C(N[C@H]1CCOC1)c1cc(-c2ccc3nc(NC(=O)C4CC4)cn3c2)[nH]n1` [Example 53, (S)-5-(2-(cyclopropanecarboxamido)imidazo[1,2-a]pyridin-6-yl)-N-(tetrahydrofuran-3-yl)-1H-pyrazole-3-carboxamide] are 25100 nM and 158 nM.
The like results for `O=C(N[C@H]1COC[C@H]1O)c1nc(-c2ccc3nc(NC(=O)C4CC4)cn3c2)cs1` [Example 108, 4-(2-(cyclopropanecarboxamido)imidazo[1,2-a]pyridin-6-yl)-N-((3S,4S)-4-hydroxytetrahydrofuran-3-yl)thiazole-2-carboxamide] were, in that order, 4370 nM and 79.4 nM.
Regarding `O=C(NCC(F)F)c1cc(-c2ccc3nc(NC(=O)C4CC4)cn3c2)cs1` [Example 55, 4-(2-(cyclopropanecarboxamido)imidazo[1,2-a]pyridin-6-yl)-N-(2,2-difluoroethyl)thiophene-2-carboxamide], at TBK1, the EC50 is 275 nM. For the same compound, the IC50 at Full length human TBK1 is 6.31 nM.
Regarding `COC1CCN(C(=O)c2nc(-c3ccc4nc(NC(=O)C5CC5)cn4c3)cs2)C1` (stereo not drawn) [Example 97, N-(6-(2-(3-methoxypyrrolidine-1-carbonyl)thiazol-4-yl)imidazo[1,2-a]pyridin-2-yl)cyclopropanecarboxamide], the EC50 on TBK1 is 1550 nM. At Full length human TBK1, the IC50 is 126 nM.
As for “(R)-4-(2-(cyclopropanecarboxamido)imidazo[1,2-a]pyrazin-6-yl)-N-(1,1,1-trifluoropropan-2-yl)thiazole-2-carboxamide [Example 7]”, the “Inhibition of TBK1 in cells pEC50 (EC)” value at TBK1 was determined as 6.41. Besides, the “TBK1 Inhibition (pIC50)” value on Full length human TBK1 turned out to be 8.1.
In the case of `O=C(Nc1cn2cc(-c3cc(C(=O)N4CCC[C@@H]4C(F)(F)F)n[nH]3)ccc2n1)C1CC1` [Example 52, (R)-N-(6-(3-(2-(trifluoromethyl)pyrrolidine-1-carbonyl)-1H-pyrazol-5-yl)imidazo[1,2-a]pyridin-2-yl)cyclopropanecarboxamide], the EC50 at TBK1 is 148 nM. The IC50 at Full length human TBK1 is 6.31 nM.
Regarding `O=C(NCC(F)(F)F)c1cnn(-c2ccc3nc(NC(=O)C4CC4)cn3c2)c1` [Example 40, 1-(2-(cyclopropanecarboxamido)imidazo[1,2-a]pyridin-6-yl)-N-(2,2,2-trifluoroethyl)-1H-pyrazole-4-carboxamide], the EC50 at TBK1 was 708 nM. For the same compound, the IC50 on Full length human TBK1 is 31.6 nM.
The corresponding values for `Cc1sc(C(=O)NCC(F)(F)F)cc1-c1ccc2nc(NC(=O)C3CC3)cn2c1` [Example 29, 4-(2-(cyclopropanecarboxamido)imidazo[1,2-a]pyridin-6-yl)-5-methyl-N-(2,2,2-trifluoroethyl)thiophene-2-carboxamide] are 6760 nM and 39.8 nM.
In the case of `CC1CCN(C(=O)c2nc(-c3ccc4nc(NC(=O)C5CC5)cn4c3)cs2)C1` (stereo not drawn) [Example 103, N-(6-(2-(3-methylpyrrolidine-1-carbonyl)thiazol-4-yl)imidazo[1,2-a]pyridin-2-yl)cyclopropanecarboxamide], on TBK1, the EC50 is 794 nM. Moreover, the IC50 on Full length human TBK1 is 79.4 nM.
Take `COCCN(CC(F)F)C(=O)c1cc(-c2ccc3nc(NC(=O)C4CC4)cn3c2)cs1` [Example 121, 4-(2-(cyclopropanecarboxamido)imidazo[1,2-a]pyridin-6-yl)-N-(2,2-difluoroethyl)-N-(2-methoxyethyl)thiophene-2-carboxamide]: the EC50 on TBK1 was 1120 nM. Besides, the IC50 at Full length human TBK1 is 39.8 nM.
As to `O=C(Nc1cn2cc(-c3csc(C(=O)N4CCC[C@H]4C(F)(F)F)c3)ccc2n1)C1CC1` [Example 61, (S)-N-(6-(5-(2-(trifluoromethyl)pyrrolidine-1-carbonyl)thiophen-3-yl)imidazo[1,2-a]pyridin-2-yl)cyclopropanecarboxamide], the EC50 on TBK1 is 2630 nM. Besides, the IC50 on Full length human TBK1 was 39.8 nM.
The corresponding values for `CC(NC(=O)c1cc(-c2ccc3nc(NC(=O)C4CC4)cn3c2)cs1)C(F)(F)F` (stereo not drawn) [Example 59, 4-(2-(cyclopropanecarboxamido)imidazo[1,2-a]pyridin-6-yl)-N-(1,1,1-trifluoropropan-2-yl)thiophene-2-carboxamide] are 240 nM and 20 nM.
Turning to `O=C(NCC1CC1)c1cc(-c2ccc3nc(NC(=O)C4CC4)cn3c2)cs1` [Example 65], on TBK1, the EC50 was 676 nM. The IC50 at Full length human TBK1 is 20 nM.
